{
  "source": "patent US20140186306A1",
  "about": "“NOVEL AMPK AGONIST COMPOSITIONS AND METHODS OF USE” (priority 2012, published 2014)",
  "key": {"mice": {"tested_on": "mice", "conditions": "oral dose of 500 mg/Kg/day over a 4 week period; cited from earlier work"}, "[1]": {"conditions": "human, in vivo, cited from earlier work"}, "[2]": {"tested_on": "horses with joint and/or soft tissue lameness", "experiment": "Clinical response of racing and non-racing horses with joint and/or soft tissue lameness to AICAR injected intra-articularly or locally infiltrated", "type": "in vivo, horse", "conditions": "all treated horses; localized injection of 1.3 mg/ml AICAR", "description": "In the examples below the novel or test composition indicated as NOVEL was comprised of 1.3 mg/ml solutions of AICAR. The purpose of this study was to evaluate the clinical response of racing and non-racing horses with joint and/or soft tissue lameness to various doses of AICAR, either injected intra-articularly or locally infiltrated into the affected soft tissue structure. […] In most cases, multiple joints or soft tissue structures per animal were treated. In some cases, joints and soft tissue structures were injected simultaneously.\nAddition of 0.5 ml of an aminoglycoside antibiotic per 2.5 ml vial of AICAR was left up to the discretion of the attending veterinarian. Prior to the treatment, each case was graded for lameness, swelling and heat, and pain. Each injected joint received either one, 1.3 mg/ml, 2.5 ml dose (3.25 mg) for a small joint, or two, 2.5 ml dose vials for large (stifle) joints. Soft tissue structures, including tendons and tendon sheaths, suspensory ligaments, exostoses (splints), periosteal osteitis, and perineural injections were done with multiple vials of the AICAR. The dose was dependent upon the perceived surface area to be treated. The horses were re-examined at various times post-injection as most horses were stabled at locations remote to the veterinarians. All cases were followed up by telephone calls to trainers/caretakers within 24 hours. […]"}},
  "data": [
    {"compound": "NC(=O)c1ncn([C@@H]2O[C@H](CO)[C@@H](O)[C@H]2O)c1N", "note": "[AICAR, 5-amino-1-β-D-ribofuranosyl-imidazole-4-carboxamide]", "values": [
      {"measurement": "performance-enhancing activity", "setting": "mice", "result": "performance-enhancing activity"},
      {"measurement": "oral bioavailability", "setting": "[1]; po", "result": "less than 5%"},
      {"measurement": "plasma clearance", "setting": "[1]", "result": 36.7, "unit": "mL/min/kg"},
      {"measurement": "adverse events", "setting": "[2]", "result": "No adverse events were reported with the exception of transient swelling of a fetlock that was traumatically injected"}
    ]}
  ]
}
